Measured values from publication PMC7156724, “Potent BRD4 inhibitor suppresses cancer cell-macrophage interaction” (Nature Communications, 2020).
Several values for one entry are separate records, joined by “and”; a condition that tells them apart may be missing. Identical values can stand only once.

Experiments:
H526 tumors = assay: Immunofluorescent staining of cleaved caspase 3 and Ki67 in H526 tumors; format: in vivo, mouse; settings: treated H526 tumors, independent images
Procedure: Immunofluorescence staining of tumor sections was performed according to the manufacturer’s instructions. Slides were imaged using a Zeiss Axiovert 200 fluorescence microscope (Carl Zeiss MicroImaging; Thornwood, NY), and images were captured using Openlab3 software (Imprecision, Lexington, MA). Cleaved caspase 3, Ki67, CSF1, and CD68 positive cells were counted with ImageJ version 1.52s[58].
Supplementary Figure 10. NHWD-870 increased tumor apoptosis and inhibite d tumor proliferation.
(a,b) Immunofluorescent staining of cleaved caspase 3 (apoptotic cells, red) and E-Cadherin (cancer cells, […]
green) in vehicle, NHWD-870 or BMS-986158 treated H526 tumors from Figure 4a. Shown are […]
representative images of cleaved caspase 3 positive cells (a) and quantification of cleaved caspase 3 positive […]
cells (b). Scale bar is 30 μm. Data are presented as mean ± SEM from 6 independent images. p values were […]
calculated using two-tailed, unpaired t tests. **, p<0.01; ***, p<0.001. (c,d) Immunofluorescent staining of […]
Ki67 (proliferating cells, red) and E-Cadherin (cancer cells, green) in vehicle, NHWD-870 or BMS-986158 […]
treated H526 tumors from (Figure 4a). Shown are representative images of Ki67 positive cells (c) and […]
quantification of Ki67 positive cells (d). Scale bar is 30 μm. […]
independent images. p values were calculated using two-tailed, unpaired t tests. *, p<0.05; ***, p<0.001. […]

[1] = system: MDA-MB231 triple negative breast cancer (TNBC) cells; assay: AlamarBlue assay, MDA-MB231; format: cell-based, human; settings: for Cellular activity in TNBCs (MDA-MB231), alamarBlue: Fig.1f, replicates
Procedure, shortened: (§1)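 BRD4 (BD1+BD2) binding to acetylated histone H4 was measured with a TR-FRET kit per the kit protocol. For the AlamarBlue assays, MDA-MB231, NCI-H211 and A375 cells were plated at ~30% confluence, adhered overnight and treated. Resazurin (0.3 mg/ml reagent) was added for 18 h and fluorescence read at ex 530/em 590 nm.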

[2] = Body weight change of H526 SCLC tumor bearing mice; settings: for Mouse body weight changes (%) from Day 0: 3mg/kg, QDx21D, 3 mg/kg
[3] = system: NCI-H211 small cell lung cancer (SCLC) cells; assay: AlamarBlue assay, NCI-H211; format: cell-based; settings: for Cellular activity in SCLCs (H211), alamarBlue: Fig.1e, replicates
Procedure, shortened: as §1

A375 human melanoma = A375 human melanoma xenograft tumor growth; format: in vivo, mouse
Description: PO, oral administration; QD, once daily; BID, twice daily. b–d Tumor growth curves for A2780 ovarian tumor (n = 5) (b), TMD8 large B cell lymphoma (n = 6) (c), and B16F10 melanoma (n = 5) (d) bearing mice treated with the indicated compounds once daily for 11-21 days. e, f Tumor growth curves for A375 melanoma (n = 6) (e), and patient-derived xenograft (PDX) of melanoma (n = 5) (f) bearing mice treated with the indicated compounds once daily (5 days on, 2 days off) for 21 days. For d–f, NHWD-870 used is NHWD-870-HCl synthesized using Suzuki coupling route. Data are presented as mean ± SEM in (a, b, d, f) and mean + SEM in (c, e). p values were calculated using two-tailed, unpaired t tests. *p < 0.05; **p < 0.01; ***p < 0.001. Source data are provided as a Source Data file.
4–6 weeks old female BALB/c nude mice were used for most experiments, with the exception of 6–8 weeks old female C57BL/6 mice were used for B16F10 experiments, and 6–8 weeks old male BALB/c nude mice and SD rats were used for pharmacokinetic experiments. All animals were purchased from Shanghai SIPPR-Bk Lab Animal Co., Ltd. All animals were housed under a regimen of 12 h light/12 h dark cycles and specific pathogen-free conditions. 5×10^6 NCI-H526, ES-2, MDA-MB231, A2780, A375, B16F10, and TMD-8 cells (0.1 ml) were injected subcutaneously into female nude mice. The melanoma patient-derived xenograft model was derived from a human melanoma sample (BRAF, NARS and NF1 wild type, and p53 mutant) removed from a patient in Xiangya Hospital. Surgically removed tumor fragments were implanted subcutaneously into female NSG mice. When the tumors grew to ~1000 mm^3, they were harvested and cryopreserved or immediately re-implanted for expansion or experiments. Mouse body weight and tumor sizes were measured every 3 days. Once the tumors grew to 150–200 mm^3, mice were treated with the compounds as described in the Figures. 1 × 10^6 A2780 cells (1 ml) were injected into the abdominal cavity of nude mice. Ascitic volume and tumor weight were measured by an electronic balance. All the procedures were evaluated and approved by the Institutional Animal Care and Use Committee of Central South University and Yale University. […]
We apologize for not clearly labeling the experiments using compounds synthesized using Suzuki coupling method. In the revised manuscript, we modified the text to clearly mark the animal models in Fig 3d-f were tested using NHWD-870 synthesized using Suzuki […]
compared the activity of NHWD-870 synthesized using Stille coupling route with the NHWD-870 synthesized from Suzuki coupling route (Reviewer Figure 1). […]
activity and possible toxicity were identical.
Reviewer Figure 1 NHWD-870 synthesized through Stille or Suzuki route has similar properties in vivo. Tumor bearing mice were treated with 2mg/kg of the indicated compounds, orally administrated once daily for 21 days. Shown are tumor growth curves (a) and body weight change (b) for A375 melanoma bearing mice. […]
986158 in terms of potency, but apart from with the A375 melanocyte cell line, the advance seems relatively moderate. With such similar compounds, the pharmacokinetic properties and ability to accumulate at the desired site is often more important. Figure S6d (prev. Fig. 3d) in the previous

Cc1nnn(C)c1-c1cnc2c3c4cnn(C)c4ccc3n([C@H](c3ccccc3)C3CCOCC3)c2c1 [NHWD-870]
% of KI67 (Ki67 positive cells) (H526 tumors): 10% and 8% and 13% and 11% and 6%
Cellular activity in TNBCs (MDA-MB231), alamarBlue ([1]; concentration 0.15): 49.81 and 46.95
Cellular activity in TNBCs (MDA-MB231), alamarBlue ([1]; concentration 0.6): 80.07 and 80.02
Cellular activity in TNBCs (MDA-MB231), alamarBlue ([1]; concentration 1): 86.71 and 86.28
Cellular activity in TNBCs (MDA-MB231), alamarBlue ([1]; concentration 1.5): 87.88 and 89.64
Cellular activity in TNBCs (MDA-MB231), alamarBlue ([1]; concentration 2): 89.68 and 91.47
Cellular activity in TNBCs (MDA-MB231), alamarBlue ([1]; concentration 2.5): 90.92 and 92.15
Cellular activity in TNBCs (MDA-MB231), alamarBlue ([1]; concentration 3): 92.14 and 92.46
Cellular activity in TNBCs (MDA-MB231), alamarBlue ([1]; concentration -0.3): 13.41 and 13.25
Cellular activity in TNBCs (MDA-MB231), alamarBlue ([1]; concentration -0.9): 6.42 and 8.37
IC50 ([1]; Homo sapiens, MDA-MB-231, 72 h, 72 h treatment, nM, read-out: IC50, cellular activity in MDA-MB231 (alamarBlue)): 1.6 nM
Body weight change (%) ([2]; 3mg/kg,QD, day 0 and day 20 or the last available data point, individual mice): -7.583% and -7.971% and -2.299% and 0.4517%
Mouse body weight changes (%) from Day 0 ([2]; Day 3, individual mice): -0.08% and -2.62% and -1.34% and 1.57% and 0.13% and 1.52%
Mouse body weight changes (%) from Day 0 ([2]; Day 7, individual mice): -7.05% and -0.52% and -4.19% and 1.94% and -3.62% and 0.82%
Mouse body weight changes (%) from Day 0 ([2]; Day 10, individual mice): -10.82% and -3.48% and 3.84% and -1.13% and -5.35% and 3.04%
Mouse body weight changes (%) from Day 0 ([2]; Day 14, individual mice): -1.11% and -16.35% and -6.33% and 0.59% and -10.57% and -3.67%
Mouse body weight changes (%) from Day 0 ([2]; Day 17, individual mice): 3.90% and -4.84% and -5.58% and -1.24% and -10.06% and -0.93%
Mouse body weight changes (%) from Day 0 ([2]; Day 20, individual mice): 0.45% and -8.20% and -7.58% and -7.97% and -11.87% and -2.30%
body weight loss ([2]; H526 SCLC tumor bearing mice, 3mg/kg QD): about 6%
fold increased potency versus BMS-986158 ([3]; Fig 1e, f): 3 fold
Cellular activity in SCLCs (H211), alamarBlue ([3]; concentration 0.0169701): 15.41 and 2.82
Cellular activity in SCLCs (H211), alamarBlue ([3]; concentration 0.0398488): 10.96 and 4.35
Cellular activity in SCLCs (H211), alamarBlue ([3]; concentration 0.137272): 28.76 and 26.98
Cellular activity in SCLCs (H211), alamarBlue ([3]; concentration 0.614394): 86.83 and 87.53
Cellular activity in SCLCs (H211), alamarBlue ([3]; concentration 1.09152): 89.61 and 89.15
Cellular activity in SCLCs (H211), alamarBlue ([3]; concentration 1.56864): 89.26 and 88.73
Cellular activity in SCLCs (H211), alamarBlue ([3]; concentration 2.04576): 89.83 and 90.11
Cellular activity in SCLCs (H211), alamarBlue ([3]; concentration 3): 91.32 and 90.79
Cellular activity in SCLCs (H211), alamarBlue ([3]; concentration column prints 2.52288): 91.56 and 90.89
IC50 ([3]; Homo sapiens, NCI-H211, 72 h, 72 h treatment, nM, read-out: IC50, cellular activity in NCI-H211 (alamarBlue)): 2 nM
fold more potent than JQ1 ([3]; NCI-H211 and MDA-MB231 cells): about 50 fold
effect on tumor growth (A375 human melanoma; A375 human melanoma, once daily (5 days on, 2 days off) 21 days, NHWD-870-HCl): very strong tumor inhibitive effects
activity and possible toxicity, Stille versus Suzuki coupling route (A375 human melanoma; A375 melanoma bearing mice, 2mg/kg orally once daily for 21 days): identical
